Results from patent US8822699B2, “Heterocyclic compound and use thereof” (Takeda Pharmaceutical Company Limited, priority 2010, dated 2014).

Tested on: Aβ42 production in primary nerve cells
Experiment: Measurement of amyloid β production inhibition rate using primary nerve cell (Aβ42 sandwich ELISA)
Assay type: cell-based
Details: Rattus norvegicus, 72 h, primary nerve cells from cerebral cortex of SD rat fetus; cultured 3 days with compound; culture supernatant, sandwich ELISA for Aβ42; read-out: Aβ42 production inhibitory activity IC50
Method: Measurement of Amyloid β Production Inhibition Rate Using Primary Nerve Cell
The primary nerve cells were collected from the cerebral cortex of rat fetus (CLEA Japan, Inc.: SD rat, fetal life 17 days of age), and suspended in a neurobasal medium containing B27 supplement, L-glutamine, penicillin-streptomycin (manufactured by Invitrogen) at 500,000 cells/mL. Then, the suspension was seeded in poly L-lysine-coated 96 well plate (manufactured by SUMITOMO BAKELITE) by 100 μL, and cultured at 37° C., 5% CO2 for 7 days. The medium was completely removed, and a new neurobasal medium was added at 75 μL/well. Thereto was added (75 μL/well) a neurobasal medium supplemented with a 2-fold measurement concentration of an evaluation target compound, and the mixture was cultured for 3 days. The culture supernatant was collected from each well, diluted as appropriate, applied to sandwich ELISA between BNT77 antibody-BA27 antibody (for Aβ40) and sandwich ELISA between BNT77 antibody-3005 antibody (for Aβ42), and the amounts of Aβ40 and Aβ42 were measured.
The amyloid β production inhibition rate (%) of the compound was calculated by the following formula. (1−(amyloid β production amount with addition of compound)/(amyloid β production amount without addition of compound))×100
The amyloid β production 50% inhibitory rate (IC50 value) was calculated using the statistical analysis software (SAS Preclinical Package) as the concentration of the compound showing 50% inhibition when the amyloid β production amount without addition of the compound is 100%. In addition, a new neurobasal medium was added (75 μL/well) to the cells after collection of the culture supernatant, and the cells were left standing for about 30 min to reach room temperature. Cell-Titer Glo Luminescent Cell Viability Assay (manufactured by Promega) was added at 75 μL/well, and the plate was shaken for 2 min and reacted for about 10 min.

Row | IC50 [nM] | Structure (SMILES)
1 | 103 | Cc1ncc(-c2ccc(-c3nnc4n3CCCC4(Oc3ccc(F)c(F)c3)C(C)(C)O)cc2OCC(F)F)o1 (centres unmarked) [Example 175, 2-{3-[3-(2,2-difluoroethoxy)-4-(2-methyl-1,3-oxazol-5-yl)phenyl]-8-(3,4-difluorophenoxy)-5,6,7,8-tetrahydro[1,2,4]-triazolo[4,3-a]pyridin-8-yl}propan-2-ol]
2 | 67 | COc1cc(-c2nnc3n2CCCC3(OCc2ccc(F)c(F)c2)C(=O)N(C)CC(F)(F)F)ccc1-c1cnc(C)o1 (centres unmarked) [Example 108, 8-[(3,4-difluorobenzyl)oxy]-3-[3-methoxy-4-(2-methyl-1,3-oxazol-5-yl)phenyl]-N-methyl-N-(2,2,2-trifluoroethyl)-5,6,7,8-tetrahydro[1,2,4]triazolo[4,3-a]pyridine-8-carboxamide]
3 | 41 | COc1cc(-c2nnc3n2CCCC3(Sc2ccc(F)c(F)c2)C(C)(C)O)ccc1-c1cnc(C)o1 (centres unmarked) [Example 140, 2-{8-[(3,4-difluorophenyl)sulfanyl]-3-[3-methoxy-4-(2-methyl-1,3-oxazol-5-yl)phenyl]-5,6,7,8-tetrahydro[1,2,4]triazolo[4,3-a]pyridin-8-yl}propan-2-ol]
4 | 58 | COc1cc(-c2nnc3n2CCCC3(Nc2cc(F)c(F)c(F)c2)C(C)(C)O)ccc1-c1cnc(C)o1 (centres unmarked) [Example 181, 2-{3-[3-methoxy-4-(2-methyl-1,3-oxazol-5-yl)phenyl]-8-[(3,4,5-trifluorophenyl)amino]-5,6,7,8-tetrahydro[1,2,4]triazolo[4,3-a]pyridin-8-yl}propan-2-ol]
5 | 10 | COc1cc(-c2nnc3n2CCCC3(Oc2ccc(Cl)c(F)c2)C(C)(C)O)ccc1-c1cnc(C)o1 (centres unmarked) [Example 70, 2-{8-(4-chloro-3-fluorophenoxy)-3-[3-methoxy-4-(2-methyl-1,3-oxazol-5-yl)phenyl]-5,6,7,8-tetrahydro[1,2,4]triazolo[4,3-a]pyridin-8-yl}propan-2-ol]
6 | 143 | COc1cc(-c2nnc3n2CCCC3(Oc2cc(F)c(F)c(F)c2)C(C)(C)O)ccc1-n1cnc(Cl)c1 (centres unmarked) [Example 165, 2-{3-[4-(4-chloro-1H-imidazol-1-yl)-3-methoxyphenyl]-8-(3,4,5-trifluorophenoxy)-5,6,7,8-tetrahydro[1,2,4]triazolo[4,3-a]pyridin-8-yl}propan-2-ol]
7 | 50 | COc1cc(-c2nnc3n2CCCC3(Cc2ccc(F)c(F)c2)C(=O)N(C)CC(F)(F)F)ccc1-c1cnc(C)o1 (centres unmarked) [Example 60, 8-(3,4-difluorobenzyl)-3-[3-methoxy-4-(2-methyl-1,3-oxazol-5-yl)phenyl]-N-methyl-N-(2,2,2-trifluoroethyl)-5,6,7,8-tetrahydro[1,2,4]triazolo[4,3-a]pyridine-8-carboxamide]
8 | 148 | COc1cc(-c2nnn3c2CCCC3(C)c2ccc(Cl)c(Cl)c2)ccc1-n1cnc(C)n1 (centres unmarked) [Example 91, 7-(3,4-dichlorophenyl)-3-[3-methoxy-4-(3-methyl-1H-1,2,4-triazol-1-yl)phenyl]-7-methyl-4,5,6,7-tetrahydro[1,2,3]triazolo[1,5-a]pyridine]
9 | 143 | COc1cc(-c2nnc3n2CCCC3(c2ccc(F)c(F)c2)C(C)(C)O)ccc1-c1cnc(C)o1 (centres unmarked) [Example 32, 2-{8-(3,4-difluorophenyl)-3-[3-methoxy-4-(2-methyl-1,3-oxazol-5-yl)phenyl]-5,6,7,8-tetrahydro[1,2,4]triazolo[4,3-a]pyridin-8-yl}propan-2-ol]
10 | 168 | Cc1ncc(-c2ccc(-c3nnc4n3CCCC4(Oc3cc(F)c(F)c(F)c3)C(C)(C)O)cc2)o1 (centres unmarked) [Example 178, 2-{3-[4-(2-methyl-1,3-oxazol-5-yl)phenyl]-8-(3,4,5-trifluorophenoxy)-5,6,7,8-tetrahydro[1,2,4]triazolo[4,3-a]pyridin-8-yl}propan-2-ol]
11 | 44 | COc1cc(-c2nnc3n2CCCC3(Oc2cc(F)c(F)c(F)c2)C(C)(C)O)ccc1-c1ccnc(C)c1 (centres unmarked) [Example 174, 2-{3-[3-methoxy-4-(2-methylpyridin-4-yl)phenyl]-8-(3,4,5-trifluorophenoxy)-5,6,7,8-tetrahydro[1,2,4]triazolo[4,3-a]pyridin-8-yl}propan-2-ol]
12 | 34 | COc1cc(-c2nnc3n2CCCC3(Oc2ccc(C(F)(F)F)cn2)C(C)(C)O)ccc1-c1cnc(C)o1 (centres unmarked) [Example 95, 2-(3-[3-methoxy-4-(2-methyl-1,3-oxazol-5-yl)phenyl]-8-{[5-(trifluoromethyl)pyridin-2-yl]oxy}-5,6,7,8-tetrahydro[1,2,4]triazolo-[4,3-a]pyridin-8-yl)propan-2-ol]
13 | 118 | COc1cc(-c2nnc3n2CC(C)CC3(Oc2ccc(F)c(F)c2)C(C)(C)O)ccc1-c1cnc(C)o1 (stereo not drawn) [Example 150, (6RS,8RS or 6RS,8SR)-2-{8-(3,4-difluorophenoxy)-3-[3-methoxy-4-(2-methyl-1,3-oxazol-5-yl)phenyl]-6-methyl-5,6,7,8-tetrahydro[1,2,4]triazolo[4,3-a]pyridin-8-yl}propan-2-ol]
14 | 55 | COc1cc(-c2nnc3n2CCCC3(CC2CC2)c2ccc(Cl)c(C(F)(F)F)c2)ccc1-n1cnc(C)c1 (centres unmarked) [Example 78, 8-[4-chloro-3-(trifluoromethyl)phenyl]-8-(cyclopropylmethyl)-3-[3-methoxy-4-(4-methyl-1H-imidazol-1-yl)phenyl]-5,6,7,8-tetrahydro[1,2,4]triazolo-[4,3-a]pyridine]

Same assay, conditions: primary nerve cells from cerebral cortex of SD rat fetus; cultured 3 days with compound; culture supernatant, sandwich ELISA for Aβ42; read-out: Aβ42 production inhibitory activity IC50

Row | IC50 [nM] | Structure (SMILES)
15 | 29 | COc1nc(-c2nnc3n2CCC[C@]3(Oc2cc(F)c(F)c(F)c2)C(C)(C)O)ccc1-n1cnc(C)c1 [Example 187, 2-{(8R)-3-[6-methoxy-5-(4-methyl-1H-imidazol-1-yl)pyridin-2-yl]-8-(3,4,5-trifluorophenoxy)-5,6,7,8-tetrahydro[1,2,4]triazolo[4,3-a]pyridin-8-yl}propan-2-ol 1(+)-mandelate]
16 | 8 | COc1cc(-c2nnn3c2CCCC3(Oc2cc(F)c(F)c(F)c2)C(C)(C)O)ccc1-c1cnc(C)o1 (centres unmarked) [Example 191, optically active 2-{3-[3-methoxy-4-(2-methyl-1,3-oxazol-5-yl)phenyl]-7-(3,4,5-trifluorophenoxy)-4,5,6,7-tetrahydro[1,2,3]triazolo[1,5-a]pyridin-7-yl}propan-2-ol]
17 | 31 | COc1cc(-c2nnc3n2CCCC3(Cc2ccc(F)c(F)c2)C(C)(C)O)ccc1-c1cnc(C)o1 (centres unmarked) [Example 49, 2-{8-(3,4-difluorobenzyl)-3-[3-methoxy-4-(2-methyl-1,3-oxazol-5-yl)phenyl]-5,6,7,8-tetrahydro[1,2,4]triazolo[4,3-a]pyridin-8-yl}propan-2-ol]
18 | 459 | COc1cc(-c2nnc3n2CCCC3(C)c2ccc(Cl)cc2)ccc1-c1cnc(C)o1 (single isomer, unassigned) [Example 3, 8-(4-chlorophenyl)-3-[3-methoxy-4-(2-methyl-1,3-oxazol-5-yl)phenyl]-8-methyl-5,6,7,8-tetrahydro[1,2,4]triazolo[4,3-a]pyridine]
19 | 35 | COc1cc(-c2nnc3n2CCCC3(CC2CC2)c2ccc(F)c(F)c2)ccc1-c1cnc(C)o1 (centres unmarked) [Example 20, 8-(cyclopropylmethyl)-8-(3,4-difluorophenyl)-3-[3-methoxy-4-(2-methyl-1,3-oxazol-5-yl)phenyl]-5,6,7,8-tetrahydro[1,2,4]triazolo-[4,3-a]pyridine]
20 | 34 | COc1nc(-c2nnc3n2CCC[C@]3(Oc2cc(F)c(F)c(F)c2)C(C)(C)O)ccc1-n1cnc(C)c1 [Example 177, 2-{(8R)-3-[6-methoxy-5-(4-methyl-1H-imidazol-1-yl)pyridin-2-yl]-8-(3,4,5-trifluorophenoxy)-5,6,7,8-tetrahydro[1,2,4]triazolo[4,3-a]pyridin-8-yl}propan-2-ol monophosphate]
21 | 14 | COc1cc(-c2nnc3n2CCCC3(Cc2ccc(F)c(F)c2)C(C)(C)O)ccc1-c1cnc(C)o1 (centres unmarked) [Example 50, optically active 2-{8-(3,4-difluorobenzyl)-3-[3-methoxy-4-(2-methyl-1,3-oxazol-5-yl)phenyl]-5,6,7,8-tetrahydro[1,2,4]triazolo[4,3-a]pyridin-8-yl}propan-2-ol]
22 | 33 | COc1nc(-c2nnc3n2CCC[C@]3(Oc2cc(F)c(F)c(F)c2)C(C)(C)O)ccc1-n1cnc(C)c1 [Example 194, 2-{(8R)-3-[6-methoxy-5-(4-methyl-1H-imidazol-1-yl)pyridin-2-yl]-8-(3,4,5-trifluorophenoxy)-5,6,7,8-tetrahydro[1,2,4]triazolo[4,3-a]pyridin-8-yl}propan-2-ol 0.67 phosphate]
23 | 30 | COc1nc(-c2nnc3n2CCC[C@]3(Oc2cc(F)c(F)c(F)c2)C(C)(C)O)ccc1-n1cnc(C)c1 [Example 197, 2-{(8R)-3-[6-methoxy-5-(4-methyl-1H-imidazol-1-yl)pyridin-2-yl]-8-(3,4,5-trifluorophenoxy)-5,6,7,8-tetrahydro[1,2,4]triazolo[4,3-a]pyridin-8-yl}propan-2-ol monogentisate]
